Counter-ions that a name gives are not always drawn.
What was measured:
[1] = target: recombinant human α2C receptor (Homo sapiens (Human), UniProt P18825); test: Antagonism against the adrenoreceptor α2C (luminescence, noradrenaline-stimulated CHO cells); type: cell-based; conditions: noradrenaline 20 nM; CHO cell line with Gαqi3 and mtOb
Method: Antagonism against the adrenoreceptor α1A was tested using a recombinant human α1A receptor CHO cell line which additionally also recombinantly expresses mtAeq (mitochondrial aequorin). Antagonism against the adrenoreceptor α2A was tested using a recombinant human α2A-Gα16 receptor fusion protein CHO cell line (PerkinElmer Life Sciences) which additionally also recombinantly expresses mtAeq. Antagonism against the adrenoreceptor α2B was tested using a recombinant human α2B receptor CHO cell line (PerkinElmer Life Sciences) which additionally also recombinantly expresses mtAeq. Antagonism against the adrenoreceptor α2C was tested using a recombinant human α2C receptor CHO cell line which additionally also recombinantly expresses a chimaric G protein (Gαqi3) and mtOb (mitochondrial obelin).
The cells were cultivated at 37° C. and 5% CO2 in Dulbecco's modified Eagle's Medium/NUT mix F12 with L-glutamine which additionally contains 10% (v/v) inactivated foetal calf serum, 1 mM sodium pyruvate, 0.9 mM sodium bicarbonate, 50 U/ml penicillin, 50 μg/ml streptomycin, 2.5 μg/ml amphotericin B and 1 mg/ml Geneticin. The cells were passaged with enzyme-free Hank's-based cell dissociation buffer. All cell culture reagents used were from Invitrogen (Carlsbad, USA).
Luminescence measurements were carried out on white 384-well microtitre plates. 2000 cells/well were plated in a volume of 25 μl and cultivated for one day at 30° C. and 5% CO2 in cell culture medium with coelenterazine (α2A and α2B: 5 μg/ml; α1a/c and α2C: 2.5 μg/ml). Serial dilutions of the test substances (10 μl) were added to the cells. After 5 minutes, noradrenaline was added to the cells (35 μl; final concentrations: 20 nM (α1a/c and α2C) or 200 nM (α2A and α2B)), and the emitted light was measured for 50 seconds using a CCD (charge-coupled device) camera (Hamamatsu Corporation, Shizuoka, Japan) in a light-tight box. The test substances were tested up to a maximum concentration of 10 μM. The IC50 values were calculated from the appropriate dose-response curves.

[2] = system: diabetic (ZDFfa/fa) and healthy rats (Wistar); test: Assay of perfusion-enhancing substances (microcirculation), laser doppler at the paw; type: in vivo, rat
Description: In diabetic (ZDFfa/fa) and healthy rats (Wistar), a laser doppler probe was fastened under anaesthesia conditions (isoflurane anaesthesia) at the sole of the paw for measuring cutaneous microcirculation. The test animals were once treated orally with the test substances. During the experiment, microperfusion and temperature of the lower extremities were documented continuously. Here, a temperature-sensitive laser doppler probe (Periflux, O2C) was fastened with adhesive to the paws of the animals, allowing the measurement of microperfusion and skin temperature. The microcirculation measurement values were measured on both paws 30 min after oral administration of the test substance. […] Also stated is the MED for the significant increase of skin temperature (ttest).
Microcirculation data for adrenoreceptor α2C receptor antagonist of the compound of Example 8 and for the comparative substance ORM12741, an AR α2c receptor antagonist from Orion, are shown in Table 3: […]

[3] = system: conscious female Wistar rats; test: Radiotelemetric measurement of blood pressure and heart rate of conscious rats; type: in vivo, rat; conditions: oral 10 mg/kg
Description: A commercially available telemetry system from Data Sciences International DSI, USA, was employed for the measurements on conscious rats described below. The system consists of 3 main components: (1) implantable transmitters (Physiotel® telemetry transmitter), (2) receivers (Physiotel® receiver), which are linked via a multiplexer (DSI Data Exchange Matrix) to a (3) data acquisition computer. The telemetry system makes it possible to continuously record blood pressure, heart rate and body motion of conscious animals in their usual habitat.
The studies were conducted on adult female Wistar rats with a body weight of >200 g. After transmitter implantation, the experimental animals were housed singly in type III Makrolon® cages. They had free access to standard feed and water. The day/night rhythm in the test laboratory was set by changing the illumination of the room.
The telemetry transmitters used (PA-C40, DSI) were surgically implanted under aseptic conditions in the experimental animals at least 14 days before the first experimental use.
For the implantation, the fasted animals were anaesthetized with isoflurane (IsoFlo®, Abbott, initiation 5%, maintenance 2%) and shaved and disinfected over a large area of their abdomens. […]
Each of the instrumented rats living in the system was assigned a separate receiving antenna (RPC-1 Receiver, DSI). […] The signals emitted were detected online by a data acquisition system (Dataquest™ A.R.T. for Windows, DSI) and processed accordingly.
In the standard procedure, the following were measured for 10-second periods in each case: (1) systolic blood pressure (SBP), (2) diastolic blood pressure (DBP), (3) mean arterial pressure (MAP) and (4) heart rate (HR) and (5) activity (ACT). These parameters were measured over 24 hours after administration.
The acquisition of measurements was repeated under computer control at 5-minute intervals. The source data obtained as absolute values were corrected in the diagram with the currently measured barometric pressure (Ambient Pressure Reference Monitor, APR-1, DSI). […]

Chain of recombinant human α2C receptor (P18825 whole entry, the tested form may be a part): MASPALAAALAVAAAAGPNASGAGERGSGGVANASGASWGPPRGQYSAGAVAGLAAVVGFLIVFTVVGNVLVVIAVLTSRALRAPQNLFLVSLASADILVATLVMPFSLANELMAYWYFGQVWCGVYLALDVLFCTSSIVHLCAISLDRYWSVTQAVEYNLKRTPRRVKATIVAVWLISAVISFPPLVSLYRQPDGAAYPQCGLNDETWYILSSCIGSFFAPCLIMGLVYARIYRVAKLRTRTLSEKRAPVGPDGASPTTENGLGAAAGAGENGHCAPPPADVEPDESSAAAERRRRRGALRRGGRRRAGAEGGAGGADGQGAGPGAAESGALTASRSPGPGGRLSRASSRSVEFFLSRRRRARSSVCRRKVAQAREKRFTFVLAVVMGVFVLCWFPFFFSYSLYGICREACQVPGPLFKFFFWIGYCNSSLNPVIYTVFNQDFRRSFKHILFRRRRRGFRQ

## CC1(C)CN(c2ncc(C(=O)N3CCC(N4CCc5ccccc5C4)CC3)cn2)CCO1 [Example 15, [4-(3,4-Dihydroisoquinolin-2(1H)-yl)piperidin-1-yl][2-(2,2-dimethylmorpholin-4-yl)pyrimidin-5-yl]methanone]
[1]
  IC50: 0.068 µM

## COC[C@@]1(C)CCCN2CCc3c(oc4ccccc34)[C@@H]21 [ORM-12741, reference compound]
[2]; single oral dose at MED, 30 min after administration
  factor by which microcirculation is improved at the MED compared to placebo: 1.9 x
[2]; single oral dose, measured 30 min after administration, significant vs placebo
  MED microcirculation: 0.1 mg/kg
[2]; single oral dose, significant increase of skin temperature (ttest)
  MED skin temperature: 0.01 mg/kg
[3]
  blood pressure: additional reduction in blood pressure

## O=C(O)[C@H]1CCCN1c1ncc(C(=O)N2CCC(N3CCc4ccccc4C3)CC2)cn1 [Example 11, 1-(5-{[4-(3,4-Dihydroisoquinolin-2(1H)-yl)piperidin-1-yl]carbonyl}pyrimidin-2-yl)-D-proline Hydrochloride]
[1]
  IC50: 0.096 µM

## CCC(COC)Nc1ncc(C(=O)N2CCC(N3CCc4cc(OC)ccc4C3)CC2)cn1 (racemic) [Example 5, (rac)-{2-[(1-Methoxybutan-2-yl)amino]pyrimidin-5-yl}[4-(6-methoxy-3,4-dihydroisoquinolin-2(1H)-yl)piperidin-1-yl]methanone]
[1]
  IC50: 0.02 µM

## COCCNc1ncc(C(=O)N2CCC(N3CCc4ccccc4C3)CC2)cn1 [Example 1, [4-(3,4-Dihydroisoquinolin-2(1H)-yl)piperidin-1-yl]{2-[(2-methoxyethyl)amino]pyrimidin-5-yl}methanone]
[1]
  IC50: 0.082 µM

## CC1CN(c2ncc(C(=O)N3CCC(N4CCc5ccccc5C4)CC3)cn2)CC(C)O1 (stereo not drawn) [Example 13, [4-(3,4-Dihydroisoquinolin-2(1H)-yl)piperidin-1-yl][2-(2,6-dimethylmorpholin-4-yl)pyrimidin-5-yl]methanone (Cis Isomer)]
[1]
  IC50: 0.047 µM

## CCC(COC)Nc1ncc(C(=O)N2CCC(N3CCc4ccc(F)cc4C3)CC2)cn1 (racemic) [Example 2, (rac)-[4-(7-Fluoro-3,4-dihydroisoquinolin-2(1H)-yl)piperidin-1-yl]{2-[(1-methoxybutan-2-yl)amino]pyrimidin-5-yl}methanone]
[1]
  IC50: 0.026 µM

## CC1CN(c2ncc(C(=O)N3CCC(N4CCc5ccccc5C4)CC3)cn2)CC(C)O1 (stereo not drawn) [Example 14, [4-(3,4-Dihydroisoquinolin-2(1H)-yl)piperidin-1-yl][2-(2,6-dimethylmorpholin-4-yl)pyrimidin-5-yl]methanone (Trans Isomer)]
[1]
  IC50: 0.024 µM

## O=C(c1cnc(N2CCS(=O)(=O)CC2)nc1)N1CCC(N2CCc3ccccc3C2)CC1 [Example 12, [4-(3,4-Dihydroisoquinolin-2(1H)-yl)piperidin-1-yl][2-(1,1-dioxidothiomorpholin-4-yl)pyrimidin-5-yl]methanone]
[1]
  IC50: 0.026 µM

## O=C(c1cnc(N2CC3(COC3)C2)nc1)N1CCC(N2CCc3ccc(F)cc3C2)CC1 [Example 9, [4-(7-Fluoro-3,4-dihydroisoquinolin-2(1H)-yl)piperidin-1-yl][2-(2-oxa-6-azaspiro[3.3]hept-6-yl)pyrimidin-5-yl]methanone]
[1]
  IC50: 0.016 µM

## COc1ccc2c(c1)CCN(C1CCN(C(=O)c3cnc(N4CC5(COC5)C4)nc3)CC1)C2 [Example 10, [4-(6-Methoxy-3,4-dihydroisoquinolin-2(1H)-yl)piperidin-1-yl][2-(2-oxa-6-azaspiro[3.3]hept-6-yl)pyrimidin-5-yl]methanone]
[1]
  IC50: 0.03 µM

## CCC(COC)Nc1ncc(C(=O)N2CCC(N3CCc4ccc(OC)cc4C3)CC2)cn1 (racemic) [Example 4, (rac)-{2-[(1-Methoxybutan-2-yl)amino]pyrimidin-5-yl}[4-(7-methoxy-3,4-dihydroisoquinolin-2(1H)-yl)piperidin-1-yl]methanone]
[1]
  IC50: 0.005 µM

## CCC(COC)Nc1ncc(C(=O)N2CCC(N3CCc4ccccc4C3)CC2)cn1 (racemic) [Example 6, (rac)-[4-(3,4-Dihydroisoquinolin-2(1H)-yl)piperidin-1-yl]{2-[(1-methoxybutan-2-yl)amino]pyrimidin-5-yl}methanone]
[1]
  IC50: 0.031 µM

## CCC(CO)Nc1ncc(C(=O)N2CCC(N3CCc4ccccc4C3)CC2)cn1 (racemic) [Example 7, (rac)-[4-(3,4-Dihydroisoquinolin-2(1H)-yl)piperidin-1-yl]{2-[(1-hydroxybutan-2-yl)amino]pyrimidin-5-yl}methanone]
[1]
  IC50: 0.068 µM

Reference: patent publication US10323020B2, “Substituted piperidinyl tetrahydroquinolines” (Bayer Pharma Aktiengesellschaft, priority 2013, dated 2019)
